Measured values published in patent US5736557A, “N,N-bis (quinolin-4-yl)-diamine derivatives, their preparation and their use as antimalarials” (Hoffman-La Roche, Inc., priority 1994, dated 1998).
Converted amounts (≈) assume the structure as drawn. Where two headings read alike, the source gives them in different places.

Legend:
[1] = system: chloroquine-resistant strains of the human-pathogenic Plasmodium falciparum; assay: Growth inhibition of chloroquine-resistant Plasmodium falciparum strains in vitro; assay type: cell-based; details: for IC50: Plasmodium falciparum; for Resistance index: ratio of average IC50 values for resistant strains and average values for sensitive strains
Procedure: (§1) Test Method for the Determination of the Activity Against Plasmodium falciparum in vitro
(§2) The preparations are tested on intraerythrocytary stages of Plasmodium falciparum from asynchronous cultures according to the method of Desjardin et al. (Desjardins, R. E. et al: Quantitative assessment of antimalarial activity in vitro by a semiautomated microdilution technique. Antimicrob. Agents Chemother. 16, 710-718, (1979)).
(§3) The culture medium consists of RPMI 1640 with the addition of 25 mM HEPES, 25 mM NaHCO3, 100 μg/ml neomycin and […] (A^+). Human-A^+ erythrocytes are used as the Plasmodium falciparum host cells. The parasites are maintained at 37° C. in an atmosphere of 3% O2, 4% CO2, 9:3% N2 and 95% relative humidity.
(§4) In order to determine the activity, the preparations are dissolved in dimethyl sulphoxide, pre-diluted in the culture medium to a suitable starting concentration and subsequently titrated-out on to microtitre plates in the 2nd stage over 6-7 steps. After the addition of the parasite culture (0.7% parasitemia in 2.5% erythrocyte suspension) the test plates are incubated under the conditions given above for 48 h-72 h. The parasite growth in the different preparation concentrations is determined using [G--^3 H]-hypoxanthin incorporation compared to untreated control cultures on the same test plates. The 50% growth inhibition (IC50) is calculated according to logit regression analysis from the resulting dosage-activity curve.
(§5) The preparations are tested on at least one chloroquine-resistant and one chloroquine-sensitive Plasmodium falciparum strain. Additional sensitive and resistant strains are included for futher characterization.

[2] = system: chloroquine-sensitive strains of the human-pathogenenic Plasmodium falciparum; assay: Growth inhibition of chloroquine-sensitive Plasmodium falciparum strains in vitro; assay type: cell-based
Procedure: as §1, §2, §3, §4, §5

[3] = system: Plasmodium berghei; assay: Activity against Plasmodium berghei in vivo in mice; parameters: species or system Plasmodium berghei (strain ANKA) in mice; details: mice; for inhibition in vivo at 10 mg/kg: percentage parasitemia reduction
Procedure: Test Method for the Determination of the Activity Against Plasmodium berghei in vivo
The preparations are tested on mice infected with malaria pathogens (Plasmodium berghei). Male albino mice (IBM:MORO(SPF), FUELLINSDORF) weighing about 25 g are used as the test animals. They are kept in climatized rooms at 21°-22° C. in groups of 5 animals per cage. They receive ad libitum a diet feed with a low PABA content (NAFAG FUTTER .COPYRGT. No. 9009 PAB-45, PABA content 45 mg/kg) and drinking water. On the first day of the test (DO) the test animals are infected with Plasmodium berghei (strain ANKA). For this there is used heparinized blood of a donor mouse with about 30% parasitemia, which is diluted with physiological saline such that it contains 10^8 parasitized erythrocytes per ml. 0.2 ml of this suspension is injected intravenously (i.v.) into the mice to be treated and into the control mice. In untreated control animals the parasitemia normally reaches 30-40% on the third day after the infection (D+3) and the test animals die between days +5 and +7.
The substances to be tested are dissolved or suspended in distilled water or in a mixture of 7% Tween 80, 3% alcohol (96%) and water. Usually, 0.25 ml of this solution or suspension is administered once subcutaneously and perorally to groups of 5 test animals. Treatment is effected 24 hours after the infection. 10 control animals are treated in the same manner with solvent or suspension medium per test.
All substances are tested in a first test in a single dosage of 10 mg/kg. Only those substances which in this test (10 mg/kg) have shown a parasitaemia reduction of 90% are used for the titration. Suitable dilutions of the test substance can be used to obtain an accurate titration of the activity.
48 hours after the treatment (D+3) blood smears are prepared from all animals using blood from tail veins and are stained with giemsa. The average erythrocyte infection rate (parasitemiea in %) in the control groups as well as in the groups which have been treated with the test compounds is determined by counting under a microscope. The difference in the average values of the infection rates of control group (100%) and treated groups is calculated and expressed as a percentage reduction (GI%). The ED50 or ED90 is determined mathematically by means of the JMP programme (nonlinear fit). The ED50 (ED90) in mg/kg is that dose which after single administration reduces the average erythrocyte infection rate by 50% (90%) in comparison to the control group.

[4] = read-out: IC50 growth inhibition, strain 7G8, chloroquine-resistant
[5] = read-out: IC50 growth inhibition, strain Indo, chloroquine-resistant
[6] = read-out: IC50 growth inhibition, strain ItG2F6, chloroquine-resistant
[7] = read-out: IC50 growth inhibition, strain K1, chloroquine-resistant
[8] = read-out: IC50 growth inhibition, strain RFCF3, chloroquine-resistant
[9] = read-out: IC50 growth inhibition, strain W2, chloroquine-resistant
[10] = read-out: IC50 growth inhibition, strain W2 Mef, chloroquine-resistant
[11] = HB3, strain HB3, chloroquine-sensitive, read-out: IC50 growth inhibition
[12] = NF54, strain NF54, chloroquine-sensitive, read-out: IC50 growth inhibition
[13] = strain FCH5C2, chloroquine-sensitive, read-out: IC50 growth inhibition
[14] = strain Ro73, chloroquine-sensitive, read-out: IC50 growth inhibition
[15] = po, single peroral dose 10 mg/kg, read-out: GI % at 10 mg/kg po
[16] = sc, single subcutaneous dose 10 mg/kg, read-out: GI % at 10 mg/kg sc
[17] = strain RFMEF3, chloroquine-sensitive, read-out: IC50 growth inhibition

| SMILES | IC50 [1, 4] [µg/mL] | IC50 [1, 5] [µg/mL] | IC50 [1, 6] [µg/mL] | IC50 [1, 7] [µg/mL] | IC50 [1, 8] [µg/mL] | IC50 [1, 9] [µg/mL] | IC50 [1, 10] [µg/mL] | Resistance index [1] | IC50 [2, 11] [µg/mL] | IC50 [2, 12] [µg/mL] | IC50 ([2]; read-out: IC50 growth inhibition, strain RFMEF3, chloroquine-sensitive) [µg/mL] | IC50 [2, 13] [µg/mL] | IC50 [2, 14] [µg/mL] | inhibition in vivo at 10 mg/kg [3, 15] [%] | ED50 ([3]; po, single peroral administration, read-out: ED50 po) [mg/kg] | inhibition in vivo at 10 mg/kg [3, 16] [%] | IC50 [2, 17] [µg/mL] |
| --- | --- | --- | --- | --- | --- | --- | --- | --- | --- | --- | --- | --- | --- | --- | --- | --- | --- |
| Clc1ccc2c(NC3CCC(CC4CCC(Nc5ccnc6cc(Cl)ccc56)CC4)CC3)ccnc2c1 (centres unmarked) [Example 12, N,N'-Bis-(7-chloroquinolin-4-yl)-dicyclohexylmethane-4,4'-diamine] | 0.0171 (≈ 0.032 µM) | 0.0137 (≈ 0.0257 µM) | 0.0133 (≈ 0.0249 µM) | 0.013 (≈ 0.0244 µM) | 0.0072 (≈ 0.0135 µM) | 0.025 (≈ 0.0469 µM) | 0.0216 (≈ 0.0405 µM) | 0.9 | 0.0263 (≈ 0.0493 µM) | 0.0116 (≈ 0.0217 µM) | 0.0137 (≈ 0.0257 µM) | 0.0194 (≈ 0.0364 µM) | 0.0178 (≈ 0.0334 µM) | – | – | – | – |
| Clc1ccc2c(NCc3ccc(CNc4ccnc5cc(Cl)ccc45)cc3)ccnc2c1 [Example 3, (7-Chloroquinolin-4-yl)-[4-(7-chloroquinolin-4-yl-aminomethyl)-benzyl]-amine] | 0.0068 (≈ 0.0148 µM) | 0.0029 (≈ 0.00631 µM) | 0.0079 (≈ 0.0172 µM) | 0.0091 (≈ 0.0198 µM) | 0.0057 (≈ 0.0124 µM) | 0.005 (≈ 0.0109 µM) | 0.0097 (≈ 0.0211 µM) | 0.7 | 0.0046 (≈ 0.01 µM) | 0.0096 (≈ 0.0209 µM) | – | 0.0127 (≈ 0.0276 µM) | 0.0074 (≈ 0.0161 µM) | 99.9 | 2.5 | 99.9 | 0.0125 (≈ 0.0272 µM) |
| Clc1ccc2c(Nc3cccc(Nc4ccnc5cc(Cl)ccc45)c3)ccnc2c1 [Example 9, N,N'-Bis-(7-Chloroquinolin-4-yl)-phenylene-1,3-diamine] | 0.0171 (≈ 0.0396 µM) | 0.0077 (≈ 0.0179 µM) | 0.0129 (≈ 0.0299 µM) | 0.0171 (≈ 0.0396 µM) | 0.0125 (≈ 0.029 µM) | 0.0121 (≈ 0.0281 µM) | 0.0121 (≈ 0.0281 µM) | 0.9 | 0.0095 (≈ 0.022 µM) | 0.0237 (≈ 0.0549 µM) | – | 0.0156 (≈ 0.0362 µM) | 0.0104 (≈ 0.0241 µM) | 86 | – | 83 | 0.0108 (≈ 0.025 µM) |
| Clc1ccc2c(NCc3cccc(CNc4ccnc5cc(Cl)ccc45)c3)ccnc2c1 [Example 2, (7-Chloroquinolin-4-yl)-[3-(7-chloroquinolin-4-yl-aminomethyl)-benzyl]-amine] | 0.0139 (≈ 0.0303 µM) | 0.0158 (≈ 0.0344 µM) | 0.019 (≈ 0.0414 µM) | 0.017 (≈ 0.037 µM) | 0.0263 (≈ 0.0573 µM) | 0.1 (≈ 0.218 µM) | 0.017 (≈ 0.037 µM) | 2.8 | 0.0089 (≈ 0.0194 µM) | 0.0103 (≈ 0.0224 µM) | – | 0.0125 (≈ 0.0272 µM) | 0.0133 (≈ 0.029 µM) | 87 | – | 99 | 0.0078 (≈ 0.017 µM) |
| Clc1ccc2c(NCc3ccccc3CNc3ccnc4cc(Cl)ccc34)ccnc2c1 [Example 1, (7-Chloroquinolin-4-yl)-[2-(7-chloroquinolin-4-yl-aminomethyl)-benzyl]-amin] | 0.007 (≈ 0.0152 µM) | 0.0069 (≈ 0.015 µM) | 0.0047 (≈ 0.0102 µM) | 0.0069 (≈ 0.015 µM) | 0.0054 (≈ 0.0118 µM) | 0.0058 (≈ 0.0126 µM) | 0.0049 (≈ 0.0107 µM) | 0.9 | 0.0075 (≈ 0.0163 µM) | 0.0102 (≈ 0.0222 µM) | – | 0.0066 (≈ 0.0144 µM) | 0.0036 (≈ 0.00784 µM) | 62 | – | 97 | 0.0065 (≈ 0.0141 µM) |
